Measured values from PMC10518255, “A first-in-class pan-lysyl oxidase inhibitor impairs stromal remodeling and enhances gemcitabine response and survival in pancreatic cancer” (Nature Cancer, 2023).
“And” between values parts separate entries of the source, which are not always exact repeats. Equal entries are not always repeated.

Legend:
Recombinant LOXL-3 = biological target: T1, Recombinant LOXL-3 (Homo sapiens, UniProt P58215); assay: Lysyl oxidase enzymatic activity, fluorescence-based assay, IC50; type: biochemical
T1 sequence (P58215 26-753): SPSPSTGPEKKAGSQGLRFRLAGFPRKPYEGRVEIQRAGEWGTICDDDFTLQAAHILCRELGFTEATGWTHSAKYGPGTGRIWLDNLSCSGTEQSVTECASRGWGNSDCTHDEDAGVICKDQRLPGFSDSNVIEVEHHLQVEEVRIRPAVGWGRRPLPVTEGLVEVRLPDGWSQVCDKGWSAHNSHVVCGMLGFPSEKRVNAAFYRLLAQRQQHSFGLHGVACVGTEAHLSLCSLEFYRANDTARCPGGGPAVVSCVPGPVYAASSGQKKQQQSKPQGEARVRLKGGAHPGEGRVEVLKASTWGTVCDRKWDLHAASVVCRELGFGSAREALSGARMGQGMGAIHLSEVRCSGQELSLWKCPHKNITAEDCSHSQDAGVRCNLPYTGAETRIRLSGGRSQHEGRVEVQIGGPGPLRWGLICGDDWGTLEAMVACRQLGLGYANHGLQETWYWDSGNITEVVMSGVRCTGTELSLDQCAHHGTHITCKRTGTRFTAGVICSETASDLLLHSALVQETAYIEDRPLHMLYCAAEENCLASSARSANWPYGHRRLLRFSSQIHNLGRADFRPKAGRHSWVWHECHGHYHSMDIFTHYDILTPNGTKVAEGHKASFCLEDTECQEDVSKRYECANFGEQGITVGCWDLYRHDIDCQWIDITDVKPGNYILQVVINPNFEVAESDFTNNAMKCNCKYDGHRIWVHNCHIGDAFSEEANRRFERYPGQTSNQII
Excerpt: (§1) Data are presented as mean ± s.d. […] Data presented as mean ± s.d. […] Source data TEXT PRINTED IN THE PICTURE: (b) PXS-5505: Recombinant DAO IC50 (nM): >30,000; Recombinant SSAO/VAP1 IC50 (nM): >30,000; Recombinant MAO-A IC50 (nM): >30,000; Recombinant MAO-B IC50 (nM): >30,000 | (f) PXS-5505: Fibroblast LOX IC50 (nM): 4,930; Recombinant LOXL-1 IC50 (nM): 1,590; Recombinant LOXL-2 IC50 (nM): 570; Recombinant LOXL-3 IC50 (nM): 1,800; Recombinant LOXL-4 IC50 (nM): 190
(§2) In characterizing PXS-5505, the half-maximum inhibitory concentration (IC50) values for each of the lysyl oxidase family members were determined by measuring enzymatic activity using a fluorescence-based assay.
(§3) Data presented as mean values +/− SD. f. […] Data presented as mean values +/− SD. […] Data presented as mean values +/− SD. […] Data presented as mean values +/− SD. Ordinary one-way ANOVA for multiple comparison test performed. Source data

LOXL2 = biological target: T2, LOXL2 (Homo sapiens, UniProt Q9Y4K0); assay: as above; type: biochemical
T2 sequence (Q9Y4K0 26-774): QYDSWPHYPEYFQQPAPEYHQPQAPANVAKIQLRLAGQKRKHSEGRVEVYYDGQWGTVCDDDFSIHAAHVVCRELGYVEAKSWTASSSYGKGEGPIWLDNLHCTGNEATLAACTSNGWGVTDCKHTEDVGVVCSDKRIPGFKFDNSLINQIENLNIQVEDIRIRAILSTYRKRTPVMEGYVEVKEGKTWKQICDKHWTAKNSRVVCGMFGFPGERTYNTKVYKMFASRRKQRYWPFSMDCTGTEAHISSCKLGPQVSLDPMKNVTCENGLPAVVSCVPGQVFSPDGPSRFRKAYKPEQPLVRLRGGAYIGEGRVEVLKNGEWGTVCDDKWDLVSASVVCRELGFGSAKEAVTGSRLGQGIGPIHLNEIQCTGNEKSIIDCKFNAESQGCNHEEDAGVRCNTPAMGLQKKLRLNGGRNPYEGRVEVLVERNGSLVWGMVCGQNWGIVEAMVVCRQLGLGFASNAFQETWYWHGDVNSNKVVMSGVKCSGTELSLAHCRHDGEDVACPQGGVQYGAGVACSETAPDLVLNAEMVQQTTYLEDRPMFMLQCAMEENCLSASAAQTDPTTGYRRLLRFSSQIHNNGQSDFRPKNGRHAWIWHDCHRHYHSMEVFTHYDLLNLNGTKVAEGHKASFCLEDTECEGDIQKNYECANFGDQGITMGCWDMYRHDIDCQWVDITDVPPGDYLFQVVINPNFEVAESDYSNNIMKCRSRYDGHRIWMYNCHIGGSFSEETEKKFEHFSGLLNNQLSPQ
Excerpt: as §1, §2, §3

[1] = log(Concentration) -4.52288, replicates, 30 µM

Cl.Cl.NC/C=C(\F)CS(=O)(=O)c1cccc2cccnc12.O [PXS-5505, (Z)-3-fluoro-4-(quinolin-8-ylsulfonyl)but-2-en-1-amine dihydrochloride monohydrate]
IC50 (Recombinant LOXL-3): 1800 nM | LOXL3 activity, IC50 determination curve (Recombinant LOXL-3; [1]): 0.995 and -0.1448 and -2.1827 | LOXL3 activity, IC50 determination curve (Recombinant LOXL-3; log(Concentration) -5, replicates, 10 µM): 5.702 | LOXL3 activity, IC50 determination curve (Recombinant LOXL-3; log(Concentration) -5.47712, replicates, 3.333 µM): 36.152 and 26.2163 | LOXL3 activity, IC50 determination curve (Recombinant LOXL-3; log(Concentration) -5.95424, replicates, 1.111 µM): 67.7528 and 54.7261 | LOXL3 activity, IC50 determination curve (Recombinant LOXL-3; log(Concentration) -6.43136, replicates, 0.3704 µM): 85.8582 and 75.7761 | LOXL3 activity, IC50 determination curve (Recombinant LOXL-3; log(Concentration) -6.90849, replicates, 0.1235 µM): 94.2403 and 83.1634 | LOXL3 activity, IC50 determination curve (Recombinant LOXL-3; log(Concentration) -7.38561, replicates, 0.04115 µM): 97.9203 and 84.9527 | LOXL3 activity, IC50 determination curve (Recombinant LOXL-3; log(Concentration) -7.86273, replicates, 0.01372 µM): 99.768 and 85.7835 | LOXL3 activity, IC50 determination curve (Recombinant LOXL-3; log(Concentration) -8.33985, replicates, 0.004572 µM): 101.158 and 89.5879 | LOXL3 activity, IC50 determination curve (Recombinant LOXL-3; log(Concentration) -8.81697, replicates, 0.001524 µM): 100.452 and 87.3896 | LOXL3 activity, IC50 determination curve (Recombinant LOXL-3; log(Concentration) -9.29409, replicates, 0.000508 µM): 100.732 and 88.8381 | activity at 10 µM (Recombinant LOXL-3; read-out: LOXL3 activity, IC50 determination curve, log(Concentration) -5, replicates): 7.74% | activity at 3.333 µM (Recombinant LOXL-3; read-out: LOXL3 activity, IC50 determination curve, log(Concentration) -5.47712, replicates): 30.5% | activity at 1.111 µM (Recombinant LOXL-3; read-out: LOXL3 activity, IC50 determination curve, log(Concentration) -5.95424, replicates): 62.6% | activity at 0.3704 µM (Recombinant LOXL-3; read-out: LOXL3 activity, IC50 determination curve, log(Concentration) -6.43136, replicates): 82.5% | activity at 0.1235 µM (Recombinant LOXL-3; read-out: LOXL3 activity, IC50 determination curve, log(Concentration) -6.90849, replicates): 98.2% | activity at 0.04115 µM (Recombinant LOXL-3; read-out: LOXL3 activity, IC50 determination curve, log(Concentration) -7.38561, replicates): 96.9% | activity at 0.01372 µM (Recombinant LOXL-3; read-out: LOXL3 activity, IC50 determination curve, log(Concentration) -7.86273, replicates): 96.8% | activity at 0.004572 µM (Recombinant LOXL-3; read-out: LOXL3 activity, IC50 determination curve, log(Concentration) -8.33985, replicates): 99.1% | activity at 0.001524 µM (Recombinant LOXL-3; read-out: LOXL3 activity, IC50 determination curve, log(Concentration) -8.81697, replicates): 100% | activity at 0.000508 µM (Recombinant LOXL-3; read-out: LOXL3 activity, IC50 determination curve, log(Concentration) -9.29409, replicates): 99.7% | IC50 (LOXL2): 570 nM | LOXL2 activity, IC50 determination curve (LOXL2; [1]): 0.9304 and 1.355 and 0.47 and 0.4711 and 0.6366 and 0.3339 and 2.414 and 1.859 and 1.553 and 2.478
